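At the GI50, growth is halved. TGI denotes the concentration required for complete inhibition of growth.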
What was measured:
Assay in all cases: NCI anticancer screen, dose series, 384-well format
SK-MEL-28 melanoma = tested on: SK-MEL-28 melanoma
NCI-H522 lung = tested on: NCI-H522 lung
PC-3 prostate = tested on: PC-3 prostate
MDA-MB-435 melanoma = tested on: MDA-MB-435 melanoma
OVCAR-5 ovarian = tested on: OVCAR-5 ovarian
MALME-3M melanoma = tested on: MALME-3M melanoma
UACC-62 melanoma = tested on: UACC-62 melanoma
SK-MEL-5 melanoma = tested on: SK-MEL-5 melanoma
UACC-257 melanoma = tested on: UACC-257 melanoma
MDA-MB-468 breast = tested on: MDA-MB-468 breast
HCT-15 colon = tested on: HCT-15 colon
MOLT-4 leukemia = tested on: MOLT-4 leukemia
U251 glioblastoma = tested on: U251 glioblastoma
786-0 renal = tested on: 786-0 renal
BT-549 breast = tested on: BT-549 breast
SF-539 CNS = tested on: SF-539 CNS
COLO 205 colon = tested on: COLO 205 colon
MDA-MB-231 breast = tested on: MDA-MB-231 breast
DU-145 prostate = tested on: DU-145 prostate
OVCAR-3 ovarian = tested on: OVCAR-3 ovarian
SW-620 colon = tested on: SW-620 colon
HCC-2998 colon = tested on: HCC-2998 colon
HOP-92 NSCLC = tested on: HOP-92 NSCLC
HCT-116 colon = tested on: HCT-116 colon
NCI-H226 lung = tested on: NCI-H226 lung
SK-OV-3 ovarian = tested on: SK-OV-3 ovarian
UO-31 renal = tested on: UO-31 renal
RPMI-8226 leukemia = tested on: RPMI-8226 leukemia
K-562 leukemia = tested on: K-562 leukemia
SR leukemia = tested on: SR leukemia
HT29 colon = tested on: HT29 colon
A549 NSCLC = tested on: A549 NSCLC
OVCAR-8 ovarian = tested on: OVCAR-8 ovarian
NCI/ADR-RES ovarian = tested on: NCI/ADR-RES ovarian
HL-60(TB) leukemia = tested on: HL-60(TB) leukemia
SNB-19 CNS = tested on: SNB-19 CNS
NCI-H322M lung = tested on: NCI-H322M lung
TK-10 renal = tested on: TK-10 renal
MCF7 breast = tested on: MCF7 breast
CAKI-1 renal = tested on: CAKI-1 renal
M14 melanoma = tested on: M14 melanoma
A498 renal = tested on: A498 renal
NCI-H23 lung = tested on: NCI-H23 lung
HOP-62 NSCLC = tested on: HOP-62 NSCLC
T-47D breast = tested on: T-47D breast
SK-MEL-2 melanoma = tested on: SK-MEL-2 melanoma
SF-268 CNS = tested on: SF-268 CNS
SN12C renal = tested on: SN12C renal
RXF 393 renal = tested on: RXF 393 renal
LOX IMVI melanoma = tested on: LOX IMVI melanoma
NCI-H460 NSCLC = tested on: NCI-H460 NSCLC
CCRF-CEM leukemia = tested on: CCRF-CEM leukemia
KM12 colon = tested on: KM12 colon
OVCAR-4 ovarian = tested on: OVCAR-4 ovarian
ACHN renal = tested on: ACHN renal
SF-295 CNS = tested on: SF-295 CNS

CCN1C(C)(C)CC(Oc2ccc(C(=O)Nc3ccc(NC(=O)Nc4cc(C(C)(C)C)on4)cc3)nc2)CC1(C)C
GI50 (SK-MEL-28 melanoma): 1.58 µM
TGI (SK-MEL-28 melanoma): 2.94 µM
GI50 (NCI-H522 lung): 1.77 µM
TGI (NCI-H522 lung): 3.16 µM
GI50 (PC-3 prostate): 1.95 µM
TGI (PC-3 prostate): 3.5 µM
GI50 (MDA-MB-435 melanoma): 2 µM
TGI (MDA-MB-435 melanoma): 3.44 µM
GI50 (OVCAR-5 ovarian): 2.08 µM
TGI (OVCAR-5 ovarian): 3.84 µM
GI50 (MALME-3M melanoma): 1.41 µM
TGI (MALME-3M melanoma): 2.72 µM
GI50 (UACC-62 melanoma): 1.87 µM
TGI (UACC-62 melanoma): 3.29 µM
GI50 (SK-MEL-5 melanoma): 1.52 µM
TGI (SK-MEL-5 melanoma): 2.86 µM
GI50 (UACC-257 melanoma): 1.33 µM
TGI (UACC-257 melanoma): 2.61 µM
GI50 (MDA-MB-468 breast): 2.03 µM
TGI (MDA-MB-468 breast): 3.56 µM
GI50 (HCT-15 colon): 1.61 µM
TGI (HCT-15 colon): 2.99 µM
GI50 (MOLT-4 leukemia): 1.67 µM
TGI (MOLT-4 leukemia): 3.06 µM
GI50 (U251 glioblastoma): 1.65 µM
TGI (U251 glioblastoma): 3.03 µM
GI50 ([…]-0 renal): 1.52 µM
TGI (786-0 renal): 2.87 µM
GI50 (BT-549 breast): 1.55 µM
TGI (BT-549 breast): 2.9 µM
GI50 (SF-539 CNS): 1.3 µM
TGI (SF-539 CNS): 2.58 µM
GI50 (COLO 205 colon): 1.79 µM
TGI (COLO 205 colon): 3.2 µM
GI50 (MDA-MB-231 breast): 1.77 µM
TGI (MDA-MB-231 breast): 3.23 µM
GI50 (DU-145 prostate): 1.88 µM
TGI (DU-145 prostate): 3.49 µM
GI50 (OVCAR-3 ovarian): 1.69 µM
TGI (OVCAR-3 ovarian): 3.1 µM
GI50 (SW-620 colon): 1.94 µM
TGI (SW-620 colon): 3.38 µM
GI50 (HCC-2998 colon): 1.6 µM
TGI (HCC-2998 colon): 2.98 µM
GI50 (HOP-92 NSCLC): 1.65 µM
TGI (HOP-92 NSCLC): 3.16 µM
GI50 (HCT-116 colon): 1.63 µM
TGI (HCT-116 colon): 3.01 µM
GI50 (NCI-H226 lung): 1.68 µM
TGI (NCI-H226 lung): 3.08 µM
GI50 (SK-OV-3 ovarian): 1.71 µM
TGI (SK-OV-3 ovarian): 3.1 µM
GI50 (UO-31 renal): 1.76 µM
TGI (UO-31 renal): 3.21 µM
GI50 (RPMI-8226 leukemia): 0.654 µM
TGI (RPMI-8226 leukemia): 1.75 µM
GI50 (K-562 leukemia): 1.6 µM
TGI (K-562 leukemia): 2.97 µM
GI50 (SR leukemia): 1.29 µM
TGI (SR leukemia): 2.57 µM
GI50 (HT29 colon): 0.832 µM
TGI (HT29 colon): 2.09 µM
GI50 (A549 NSCLC): 1.83 µM
TGI (A549 NSCLC): 3.32 µM
GI50 (OVCAR-8 ovarian): 1.77 µM
TGI (OVCAR-8 ovarian): 3.19 µM
GI50 (NCI/ADR-RES ovarian): 1.82 µM
TGI (NCI/ADR-RES ovarian): 3.72 µM
GI50 (HL-60(TB) leukemia): 2.51 µM
TGI (HL-60(TB) leukemia): 5.71 µM
GI50 (SNB-19 CNS): 1.98 µM
TGI (SNB-19 CNS): 3.48 µM
GI50 (NCI-H322M lung): 2.02 µM
TGI (NCI-H322M lung): 4.14 µM
GI50 (TK-10 renal): 1.92 µM
TGI (TK-10 renal): 3.87 µM
GI50 (MCF7 breast): 1.55 µM
TGI (MCF7 breast): 2.91 µM
GI50 (CAKI-1 renal): 1.62 µM
TGI (CAKI-1 renal): 3.22 µM
GI50 (M14 melanoma): 1.71 µM
TGI (M14 melanoma): 3.09 µM
GI50 (A498 renal): 1.6 µM
TGI (A498 renal): 3.02 µM
GI50 (NCI-H23 lung): 3.33 µM
TGI (NCI-H23 lung): 8.85 µM
GI50 (HOP-62 NSCLC): 1.88 µM
TGI (HOP-62 NSCLC): 3.34 µM
GI50 (T-47D breast): 1.43 µM
TGI (T-47D breast): 2.79 µM
GI50 (SK-MEL-2 melanoma): 1.25 µM
TGI (SK-MEL-2 melanoma): 2.5 µM
GI50 (SF-268 CNS): 1.68 µM
TGI (SF-268 CNS): 3.11 µM
GI50 (SN12C renal): 1.71 µM
TGI (SN12C renal): 3.09 µM
GI50 (RXF 393 renal): 0.384 µM
TGI (RXF 393 renal): 1.47 µM
GI50 (LOX IMVI melanoma): 1.86 µM
TGI (LOX IMVI melanoma): 3.27 µM
GI50 (NCI-H460 NSCLC): 1.8 µM
TGI (NCI-H460 NSCLC): 3.24 µM
GI50 (CCRF-CEM leukemia): 1.8 µM
TGI (CCRF-CEM leukemia): 3.2 µM
GI50 (KM12 colon): 1.74 µM
TGI (KM12 colon): 3.14 µM
GI50 (OVCAR-4 ovarian): 1.56 µM
TGI (OVCAR-4 ovarian): 3.77 µM
GI50 (ACHN renal): 1.75 µM
TGI (ACHN renal): 3.2 µM
GI50 (SF-295 CNS): 1.84 µM
TGI (SF-295 CNS): 3.25 µM

From PubChem BioAssay (NCI)
